# Assay results published in ChEMBL document CHEMBL1151757, “Synthesis, radiosynthesis, and biological evaluation of fluorine-18-labeled 2beta-carbo(fluoroalkoxy)-3beta-(3'-((Z)-2-haloethenyl)phenyl)nortropanes: candidate radioligands for in vivo imaging of the serotonin transporter with positron emission tomography” (J Med Chem, 2008).
# How the values were obtained:
# [1] = Ratio of drug uptake in pons to cerebellum in anesthetized cynomolgus monkey after 85 mins postinjection; type: ADME, organism-based, Macaca fascicularis; conditions: in vivo
# [2] = Ratio of drug uptake in pons to cerebellum in anesthetized cynomolgus monkey after 95 mins postinjection; type: ADME, organism-based, Macaca fascicularis; conditions: in vivo
# [3] = Ratio of drug uptake in medulla to cerebellum in anesthetized cynomolgus monkey after 18.5 mins postinjection; type: ADME, organism-based, Macaca fascicularis; conditions: in vivo
# [4] = Ratio of drug uptake in medulla to cerebellum in anesthetized cynomolgus monkey after 155 mins postinjection; type: ADME, organism-based, Macaca fascicularis; conditions: in vivo
# [5] = Drug uptake in anesthetized cynomolgus monkey brain occipital lobe after 2.5 mins postinjection; type: ADME, organism-based, Macaca fascicularis; conditions: in vivo
# [6] = Drug uptake in anesthetized cynomolgus monkey brain occipital lobe after 6.5 mins postinjection; type: ADME, organism-based, Macaca fascicularis; set-up: unit not given here; conditions: in vivo
# [7] = Drug uptake in anesthetized cynomolgus monkey brain occipital lobe after 22.5 mins postinjection; type: ADME, organism-based, Macaca fascicularis; conditions: in vivo, 0.375 h
# [8] = Drug uptake in anesthetized cynomolgus monkey brain occipital lobe after 55 mins postinjection; type: ADME, organism-based, Macaca fascicularis; conditions: in vivo
# [9] = Drug uptake in anesthetized cynomolgus monkey brain occipital lobe after 165 mins postinjection; type: ADME, organism-based, Macaca fascicularis; conditions: in vivo, 2.75 h
# [10] = Drug uptake in anesthetized cynomolgus monkey brain occipital lobe after 215 mins postinjection; type: ADME, organism-based, Macaca fascicularis; conditions: in vivo
# [11] = Drug uptake in anesthetized cynomolgus monkey brain frontal lobe after 0.5 mins postinjection; type: ADME, organism-based, Macaca fascicularis; conditions: in vivo
# [12] = Drug uptake in anesthetized cynomolgus monkey brain frontal lobe after 35 mins postinjection; type: ADME, organism-based, Macaca fascicularis; conditions: in vivo
# [13] = Drug uptake in anesthetized cynomolgus monkey brain frontal lobe after 55 mins postinjection; type: ADME, organism-based, Macaca fascicularis; conditions: in vivo
# [14] = Drug uptake in anesthetized cynomolgus monkey brain frontal lobe after 155 mins postinjection; type: ADME, organism-based, Macaca fascicularis; conditions: in vivo
# [15] = Drug uptake in anesthetized cynomolgus monkey brain frontal lobe after 175 mins postinjection; type: ADME, organism-based, Macaca fascicularis; conditions: in vivo
# [16] = Ratio of drug uptake in pons to cerebellum in anesthetized cynomolgus monkey after 6.5 mins postinjection; type: ADME, organism-based, Macaca fascicularis; conditions: in vivo
# [17] = Ratio of drug uptake in occipital lobe to cerebellum in anesthetized cynomolgus monkey after 95 mins postinjection; type: ADME, organism-based, Macaca fascicularis; conditions: in vivo
# [18] = Ratio of drug uptake in occipital lobe to cerebellum in anesthetized cynomolgus monkey after 105 mins postinjection; type: ADME, organism-based, Macaca fascicularis; conditions: in vivo, 1.75 h
# Putamen [19] = assay: Drug uptake in anesthetized cynomolgus monkey brain putamen after 165 mins postinjection; type: ADME, organism-based, Macaca fascicularis; conditions: in vivo, 2.75 h
# [20] = Ratio of drug uptake in occipital lobe to cerebellum in anesthetized cynomolgus monkey after 185 mins postinjection; type: ADME, organism-based, Macaca fascicularis; conditions: in vivo
# [21] = Ratio of drug uptake in frontal lobe to cerebellum in anesthetized cynomolgus monkey after 35 mins postinjection; type: ADME, organism-based, Macaca fascicularis; conditions: in vivo
# [22] = Ratio of drug uptake in frontal lobe to cerebellum in anesthetized cynomolgus monkey after 135 mins postinjection; type: ADME, organism-based, Macaca fascicularis; conditions: in vivo, 2.25 h
# Midbrain [23] = assay: Drug uptake in anesthetized cynomolgus monkey brain midbrain after 135 mins postinjection; type: ADME, organism-based, Macaca fascicularis; conditions: in vivo, 2.25 h
# Midbrain [24] = assay: Drug uptake in anesthetized cynomolgus monkey brain midbrain after 155 mins postinjection; type: ADME, organism-based, Macaca fascicularis; conditions: in vivo
# Pons [25] = assay: Drug uptake in anesthetized cynomolgus monkey brain pons after 4.5 mins postinjection; type: ADME, organism-based, Macaca fascicularis; conditions: in vivo, 0.075 h
# Pons [26] = assay: Drug uptake in anesthetized cynomolgus monkey brain pons after 12.5 mins postinjection; type: ADME, organism-based, Macaca fascicularis; conditions: in vivo
# Pons [27] = assay: Drug uptake in anesthetized cynomolgus monkey brain pons after 22.5 mins postinjection; type: ADME, organism-based, Macaca fascicularis; conditions: in vivo, 0.375 h
# Pons [28] = assay: Drug uptake in anesthetized cynomolgus monkey brain pons after 55 mins postinjection; type: ADME, organism-based, Macaca fascicularis; conditions: in vivo
# Pons [29] = assay: Drug uptake in anesthetized cynomolgus monkey brain pons after 95 mins postinjection; type: ADME, organism-based, Macaca fascicularis; conditions: in vivo
# Midbrain [30] = assay: Drug uptake in anesthetized cynomolgus monkey brain midbrain after 185 mins postinjection; type: ADME, organism-based, Macaca fascicularis; conditions: in vivo
# Midbrain [31] = assay: Drug uptake in anesthetized cynomolgus monkey brain midbrain after 195 mins postinjection; type: ADME, organism-based, Macaca fascicularis; conditions: in vivo, 3.25 h
# [32] = Ratio of drug uptake in caudate to cerebellum in anesthetized cynomolgus monkey after 9.5 mins postinjection; type: ADME, organism-based, Macaca fascicularis; conditions: in vivo
# [33] = Ratio of drug uptake in caudate to cerebellum in anesthetized cynomolgus monkey after 12.5 mins postinjection; type: ADME, organism-based, Macaca fascicularis; conditions: in vivo
# [34] = Ratio of drug uptake in caudate to cerebellum in anesthetized cynomolgus monkey after 18.5 mins postinjection; type: ADME, organism-based, Macaca fascicularis; conditions: in vivo
# [35] = Ratio of drug uptake in caudate to cerebellum in anesthetized cynomolgus monkey after 95 mins postinjection; type: ADME, organism-based, Macaca fascicularis; conditions: in vivo
# Pons [36] = assay: Drug uptake in anesthetized cynomolgus monkey brain pons after 155 mins postinjection; type: ADME, organism-based, Macaca fascicularis; conditions: in vivo
# Pons [37] = assay: Drug uptake in anesthetized cynomolgus monkey brain pons after 165 mins postinjection; type: ADME, organism-based, Macaca fascicularis; conditions: in vivo, 2.75 h
# Medulla [38] = assay: Drug uptake in anesthetized cynomolgus monkey brain medulla after 0.5 mins postinjection; type: ADME, organism-based, Macaca fascicularis; conditions: in vivo
# Medulla [39] = assay: Drug uptake in anesthetized cynomolgus monkey brain medulla after 12.5 mins postinjection; type: ADME, organism-based, Macaca fascicularis; conditions: in vivo
# Medulla [40] = assay: Drug uptake in anesthetized cynomolgus monkey brain medulla after 18.5 mins postinjection; type: ADME, organism-based, Macaca fascicularis; conditions: in vivo
# [41] = Octanol-water partition coefficient, log P at pH 7.4 by shake-flask method; type: physicochemical
# Medulla [42] = assay: Drug uptake in anesthetized cynomolgus monkey brain medulla after 215 mins postinjection; type: ADME, organism-based, Macaca fascicularis; conditions: in vivo
# [43] = Drug uptake in anesthetized cynomolgus monkey brain cerebellum after 3.5 mins postinjection; type: ADME, organism-based, Macaca fascicularis; conditions: in vivo
# [44] = Drug uptake in anesthetized cynomolgus monkey brain cerebellum after 225 mins postinjection; type: ADME, organism-based, Macaca fascicularis; conditions: in vivo, 3.75 h
# [45] = Ratio of drug uptake in putamen to cerebellum in anesthetized cynomolgus monkey after 235 mins postinjection; type: ADME, organism-based, Macaca fascicularis; conditions: in vivo
# [46] = Ratio of drug uptake in thalamus to cerebellum in anesthetized cynomolgus monkey after 95 mins postinjection; type: ADME, organism-based, Macaca fascicularis; conditions: in vivo
# [47] = Ratio of drug uptake in thalamus to cerebellum in anesthetized cynomolgus monkey after 115 mins postinjection; type: ADME, organism-based, Macaca fascicularis; conditions: in vivo
# [48] = Ratio of drug uptake in thalamus to cerebellum in anesthetized cynomolgus monkey after 195 mins postinjection; type: ADME, organism-based, Macaca fascicularis; conditions: in vivo, 3.25 h
# Caudate [49] = assay: Drug uptake in anesthetized cynomolgus monkey brain caudate after 4.5 mins postinjection; type: ADME, organism-based, Macaca fascicularis, Caudate nucleus; conditions: in vivo, 0.075 h
# Caudate [50] = assay: Drug uptake in anesthetized cynomolgus monkey brain caudate after 9.5 mins postinjection; type: ADME, organism-based, Macaca fascicularis, Caudate nucleus; conditions: in vivo
# Caudate [51] = assay: Drug uptake in anesthetized cynomolgus monkey brain caudate after 27.5 mins postinjection; type: ADME, organism-based, Macaca fascicularis, Caudate nucleus; conditions: in vivo
# Putamen [52] = assay: Drug uptake in anesthetized cynomolgus monkey brain putamen after 2.5 mins postinjection; type: ADME, organism-based, Macaca fascicularis; conditions: in vivo
# [53] = Ratio of drug uptake in occipital lobe to cerebellum in anesthetized cynomolgus monkey after 0.5 mins postinjection; type: ADME, organism-based, Macaca fascicularis; conditions: in vivo
# [54] = Ratio of drug uptake in occipital lobe to cerebellum in anesthetized cynomolgus monkey after 12.5 mins postinjection; type: ADME, organism-based, Macaca fascicularis; conditions: in vivo
# Thalamus [55] = assay: Drug uptake in anesthetized cynomolgus monkey brain thalamus after 2.5 mins postinjection; type: ADME, organism-based, Macaca fascicularis; set-up: unit not given here; conditions: in vivo
# Thalamus [56] = assay: Drug uptake in anesthetized cynomolgus monkey brain thalamus after 6.5 mins postinjection; type: ADME, organism-based, Macaca fascicularis; set-up: unit not given here; conditions: in vivo
# Thalamus [57] = assay: Drug uptake in anesthetized cynomolgus monkey brain thalamus after 12.5 mins postinjection; type: ADME, organism-based, Macaca fascicularis; set-up: unit not given here; conditions: in vivo
# Thalamus [58] = assay: Drug uptake in anesthetized cynomolgus monkey brain thalamus after 15.5 mins postinjection; type: ADME, organism-based, Macaca fascicularis; set-up: unit not given here; conditions: in vivo
# Putamen [59] = assay: Drug uptake in anesthetized cynomolgus monkey brain putamen after 22.5 mins postinjection; type: ADME, organism-based, Macaca fascicularis; set-up: unit not given here; conditions: in vivo, 0.375 h
# Putamen [60] = assay: Drug uptake in anesthetized cynomolgus monkey brain putamen after 65 mins postinjection; type: ADME, organism-based, Macaca fascicularis; set-up: unit not given here; conditions: in vivo
# Putamen [61] = assay: Drug uptake in anesthetized cynomolgus monkey brain putamen after 105 mins postinjection; type: ADME, organism-based, Macaca fascicularis; set-up: unit not given here; conditions: in vivo, 1.75 h
# Midbrain [62] = assay: Drug uptake in anesthetized cynomolgus monkey brain midbrain after 3.5 mins postinjection; type: ADME, organism-based, Macaca fascicularis; set-up: unit not given here; conditions: in vivo
# Midbrain [63] = assay: Drug uptake in anesthetized cynomolgus monkey brain midbrain after 18.5 mins postinjection; type: ADME, organism-based, Macaca fascicularis; set-up: unit not given here; conditions: in vivo
# Midbrain [64] = assay: Drug uptake in anesthetized cynomolgus monkey brain midbrain after 125 mins postinjection; type: ADME, organism-based, Macaca fascicularis; set-up: unit not given here; conditions: in vivo
# [65] = Ratio of drug uptake in midbrain to cerebellum in anesthetized cynomolgus monkey after 22.5 mins postinjection; type: ADME, organism-based, Macaca fascicularis; conditions: in vivo, 0.375 h
# [66] = Ratio of drug uptake in midbrain to cerebellum in anesthetized cynomolgus monkey after 95 mins postinjection; type: ADME, organism-based, Macaca fascicularis; conditions: in vivo
smiles,measurement,setting,value
O=C(OCCC[18F])C1C2CCC(CC1c1cccc(/C=C\I)c1)N2 (stereo unspecified),Ratio,[1],1.1
same,Ratio,[2],1.3
same,Ratio,[3],1
same,Ratio,[4],1.8
same,Drug uptake,[5],0.62
same,Drug uptake,[6],2.83
same,Drug uptake,[7],3.88
same,Drug uptake,[8],4
same,Drug uptake,[9],2.59
same,Drug uptake,[10],2.08
same,Drug uptake,[11],0
same,Drug uptake,[12],2.85
same,Drug uptake,[13],2.82
same,Drug uptake,[14],2.33
same,Drug uptake,[15],2.05
same,Ratio,[16],0.7
same,Ratio,[17],1
same,Ratio,[18],1
same,Drug uptake,Putamen [19],3.74
same,Ratio,[20],1.1
same,Ratio,[21],0.6
same,Ratio,[22],0.9
same,Drug uptake,Midbrain [23],4.45
same,Drug uptake,Midbrain [24],4.35
same,Drug uptake,Pons [25],1.92
same,Drug uptake,Pons [26],3.49
same,Drug uptake,Pons [27],4.1
same,Drug uptake,Pons [28],4.4
same,Drug uptake,Pons [29],4.41
same,Drug uptake,Midbrain [30],4.05
same,Drug uptake,Midbrain [31],3.85
same,Ratio,[32],0.6
same,Ratio,[33],0.7
same,Ratio,[34],0.7
same,Ratio,[35],1.1
same,Drug uptake,Pons [36],3.52
same,Drug uptake,Pons [37],3.73
same,Drug uptake,Medulla [38],0.01
same,Drug uptake,Medulla [39],4.73
same,Drug uptake,Medulla [40],4.6
same,logD,[41],1.64
same,Drug uptake,Medulla [42],3.66
same,Drug uptake,[43],1.95
same,Drug uptake,[44],1.87
same,Ratio,[45],1.6
same,Ratio,[46],1.3
same,Ratio,[47],1.4
same,Ratio,[48],1.5
same,Drug uptake,Caudate [49],1.55
same,Drug uptake,Caudate [50],2.7
same,Drug uptake,Caudate [51],3.68
same,Drug uptake,Putamen [52],0.84
same,Ratio,[53],0.8
same,Ratio,[54],0.8
same,Drug uptake,Thalamus [55],0.8
same,Drug uptake,Thalamus [56],3.06
same,Drug uptake,Thalamus [57],3.75
same,Drug uptake,Thalamus [58],4.11
same,Drug uptake,Putamen [59],4.71
same,Drug uptake,Putamen [60],4.95
same,Drug uptake,Putamen [61],4.52
same,Drug uptake,Midbrain [62],1.74
same,Drug uptake,Midbrain [63],4.65
same,Drug uptake,Midbrain [64],4.58
same,Ratio,[65],1
same,Ratio,[66],1.4
